Blank lines part the entries; values can stand above or below the compound they belong to.
Experiments:
[1] = molecular target: T1, aldose reductase (Sus scrofa, UniProt P80276); assay: Aldose reductase inhibitory activity (porcine crystalline lens enzyme); type: biochemical; conditions: d1-glyceraldehyde 3 mM, pH 6.2, 25° C., 2 minutes
T1 construct: porcine crystalline lens stored at -80° C. was homogenized in distilled water; from tissue; host or cells: porcine crystalline lens
Description: Aldose reductase enzyme standard was prepared from porcine crystalline lens by the method of Hayman et al. (cf., S. Hayman et al., Journal of Biological Chemistry, 240, 877-882, 1965). That is, porcine crystalline lens stored at -80° C. was homogenized in distilled water followed by centrifugation at 10,000 XG for 15 minutes. The supernatant was dissolved to make 40% ammonium sulfate solution. The supernatant centrifuged at 10,000 XG for further 10 minutes was dialyzed to 0.05 M sodium chloride solution overnight. The thus obtained dialysate was used as the enzyme standard.
The activity of aldose reductase was determined by the method of Hayman et al. supra. That is, 25 μl of the enzyme solution described above and […] of a drug solution in 1% DMSO having various concentrations were added to 200 μl of 40 mM phosphate buffer (pH 6.2) prepared to contain […] lithium sulfate and 0.1 MM NADPH (reduced nicotinamide adenine dinucleotide phosphate) in final concentrations and Containing 3 mM d1-glyceraldehyde as substrate, respectively. Thereafter, the mixture was reacted at 25° C. for 2 minutes and change in absorbance at 340 nm was determined using COBAS FARA II (Roche Co.).

[2] = test system: ICR strain mice; assay: Safety test, single oral administration in mice with 14 days observation; type: in vivo; conditions: 300 mg/kg oral, male ICR mice
Description: Next, safety of the compounds of the present invention was verified by the following test.
After normal ICR strain mice (male, 7 weeks age, 5 mice being into one group) was fasted for 18 hours, each compound (300 mg/kg) of Examples 1311, 132, 134, 156, 173, 179, 183 and 188 was orally administered in the form of 0.5% carboxymethylcellulose suspension. In the control group, 0.5% carboxymethylcellulose solution alone was orally administered. […] During the observation, mice were free access to feed and water.

[3] = test system: tissue sorbitol in streptozotocin-induced diabetic rats; assay: Inhibitory activity of accumulation of tissue sorbitol in streptozotocin-induced diabetic rats; type: in vivo, Sprague-Dawley rats; conditions: 30 mg/kg oral 4, 8 and 24 hours after streptozotocin, control = 100%, Tukey's test *p < 0.05, **p < 0.01; for Accumulation of Tissue Sorbitol (%), Nerve: sciatic nerve
Description: 4) Inhibitory activity of accumulation of tissue sorbitol in streptozatocini-induced diabetic rats.
Sprague-Dawley rats (male,6 weeks of age, one group composed of 5 to 6 rats), fasted overnight, were made diabetic by single intravenous injection of 60 mg/kg body weight of streptozotocin (SIGMA Co. ) , which had been freshly dissolved in normal saline solution.
The compound was orally administered in the form of 0.5% carboxymethylcellulose suspension in a dose of 30 mg/kg 4, 8 and 24 hours after the injection of streptozotocin. During the test, rats were free access to feed and water. Three hours after the final administration, the sorbitol contens in tissues (red blood cell, sciatic nerve, lens) Were determined by the enzyme method of Bergmeyer et al. [cf., H. Y. Bergmeyer et al., Methods of Enzymatic Analysis, 3, 1323-1330, 1974], using SDH (sorbitol dehydrogenase) and AND (β-nicotinamide adenine dinucleotide). The results are shown by percentage (%) when the value obtained with control group administered with 0.5% carboxymethylcellulose solution as a solvent instead of the compound was made 100%.

Structure (SMILES): O=C(O)CC1Sc2ccccc2N(Cc2nc3cc(F)ccc3s2)C1=O (centres unmarked) [Example 131, 2-[4-(5-fluorobenzothiazol-2-yl]methyl-3,4-dihydro-3-oxo-2H-1,4-benzothiazin-2-yl]acetic acid]
IC50 [1]: 15 nM
body weight [2]: progressed as in the control group
mice dead [2]: none

Structure (SMILES): Cc1ccc2c(c1)N(Cc1nc3cc(F)ccc3s1)C(=O)C(CC(=O)O)S2 (centres unmarked) [Example 132, 2-[4-(5-Fluorobenzothiazol-2-yl)methyl-6-methyl-3,4-dihydro-3-oxo-2H -1,4-benzothiazin-2-yl]acetic acid]
body weight [2]: progressed as in the control group
mice dead [2]: none

IC50 [1]: 15 nM
Structure (SMILES): CCOc1ccc2c(c1)SC(CC(=O)O)C(=O)N2Cc1nc2cc(F)ccc2s1 (centres unmarked) [Example 133, 2-[7-Ethoxy-4-(5-fluorobenzothiazol-2-yl)methyl-3,4-dihydro-3-oxo-2H-1,4-benzothiazin-2-yl]acetic acid]

Structure (SMILES): Cc1cc(C)c2c(c1)N(Cc1nc3cc(F)ccc3s1)C(=O)C(CC(=O)O)S2 (centres unmarked) [Example 134, 2-[6,8-Dimethyl-4-(5-fluorobenzothiazol-2-yl)methyl-3,4-dihydro-3-oxo-2H-1,4-benzothiazin-2-yl]acetic acid]
body weight [2]: progressed as in the control group
mice dead [2]: none

IC50 [1]: 14 nM
Structure (SMILES): Cc1ccc2c(c1)N(Cc1nc3cc(Cl)ccc3s1)C(=O)C(CC(=O)O)S2 (centres unmarked) [Example 139]

Structure (SMILES): O=C(O)CC1Sc2ccccc2N(Cc2nc3c(Cl)c(Cl)ccc3s2)C1=O (centres unmarked) [Example 154, 2-[4-(4,5-Dichlorobenzothiazol-2-yl)methyl-3,4-dihydro-3-oxo-2H-1,4-benzothiazin-2-yl]acetic acid]
Accumulation of Tissue Sorbitol (%), Lens [3]: 59.0%
Accumulation of Tissue Sorbitol (%), Red Blood Cell [3]: 3.3%
Accumulation of Tissue Sorbitol (%), Nerve [3]: 18.6%

IC50 [1]: 14 nM
Structure (SMILES): O=C(O)CC1Sc2ccccc2N(Cc2nc3ccc(F)c(F)c3s2)C1=O (centres unmarked) [Example 155, 2-[4-(6,7-Difluorobenzothiazol-2-yl)methyl-3,4-dihydro-3-oxo-2H-1,4-benzothiazin-2-yl]acetic acid]
Accumulation of Tissue Sorbitol (%), Lens [3]: 36.8%
Accumulation of Tissue Sorbitol (%), Red Blood Cell [3]: 0.0%
Accumulation of Tissue Sorbitol (%), Nerve [3]: 7.0%

Structure (SMILES): Cc1ccc2c(c1)N(Cc1nc3c(Cl)c(Cl)ccc3s1)C(=O)C(CC(=O)O)S2 (centres unmarked) [Example 156, 2-[4-(4,5-Dichlorobenzothiazol-2-yl)methyl-6-methyl-3,4-dihydro-3-oxo-2H-1,4-benzothiazin-2-yl]acetic acid]
body weight [2]: progressed as in the control group
mice dead [2]: none

Structure (SMILES): O=C(O)CC1Sc2ccccc2N(Cc2nc3c(F)ccc(F)c3s2)C1=O (centres unmarked) [Example 158, 2-[4-(4,7-Difluorobenzothiazol-2-yl)methyl-3,4-dihydro-3-oxo-2H-1,4-benzothiazin-2-yl]acetic acid]
Accumulation of Tissue Sorbitol (%), Lens [3]: 58.4%
Accumulation of Tissue Sorbitol (%), Red Blood Cell [3]: 39.2%
Accumulation of Tissue Sorbitol (%), Nerve [3]: 33.1%

IC50 [1]: 14 nM
Structure (SMILES): O=C(O)CC1Sc2ccccc2N(Cc2nc3ccc(Cl)c(Cl)c3s2)C1=O (centres unmarked) [Example 160, 2-[4-(6,7-Dichlorobenzothiazol-2-.yl)methyl-3,4-dihydro-3-oxo-2H-1,4-benzothiazin-2-yl]acetic acid]

IC50 [1]: 9.1 nM
Structure (SMILES): O=C(O)CC1Sc2ccccc2N(Cc2nc3c(Cl)c(Cl)cc(Cl)c3s2)C1=O (centres unmarked) [Example 166, 2-[4-(4,5,7-Trichlorobenzothiazol-2-yl)methyl-3,4-dihydro-3-oxo-2H-1,4-benzothiazin-2-yl]acetic acid]

Structure (SMILES): O=C(O)CC1Sc2ccccc2N(Cc2nc3cc(F)cc(F)c3s2)C1=O (centres unmarked) [Example 173, 2-[4-(5,7-Difluorobenzothiazol-2-yl)methyl-3,4-dihydro-3-oxo-2H-1,4-benzothiazin-2-yl]acetic acid]
IC50 [1]: 14 nM
body weight [2]: progressed as in the control group
mice dead [2]: none

IC50 [1]: 14 nM
Structure (SMILES): Cc1ccc2c(c1)N(Cc1nc3c(F)cccc3s1)C(=O)C(CC(=O)O)S2 (centres unmarked) [Example 176, 2-[4-(4-Fluorobenzothiazol-2-yl)methyl-6-methyl-3,4-dihydro-3-oxo-2H-1,4-benzothiazin-2-yl]acetic acid]

IC50 [1]: 16 nM
Structure (SMILES): O=C(O)CC1Sc2cccc(F)c2N(Cc2nc3cc(F)ccc3s2)C1=O (centres unmarked) [Example 177, 2-[5-Fluoro-4-(5-fluorobenzothiazol-2-yl)methyl-3,4-dihydro-3-oxo-2H-1,4-benzothiazin-2-yl]acetic acid]

Structure (SMILES): Cc1ccc2c(c1)N(Cc1nc3cc(F)cc(F)c3s1)C(=O)C(CC(=O)O)S2 (centres unmarked) [Example 179, 2-[4-(5,7-Difluorobenzothiazol-2-yl)methyl-6-methyl-3,4-dihydro-3-oxo-2H-1,4-benzothiazin-2-yl]acetic acid]
body weight [2]: progressed as in the control group
mice dead [2]: none

IC50 [1]: 12 nM
Structure (SMILES): O=C(O)CC1Sc2cc(F)ccc2N(Cc2nc3cc(F)cc(F)c3s2)C1=O (centres unmarked) [Example 182, 2-[4-(5,7-Difluorobenzothiazol-2-yl)methyl-7-fluoro-3,4-dihydro-3-oxo-2H-1,4-benzothiazin-2-yl]acetic acid]

IC50 [1]: 9.8 nM
Structure (SMILES): O=C(O)CC1Sc2cc(OC(F)(F)F)ccc2N(Cc2nc3cc(F)cc(F)c3s2)C1=O (centres unmarked) [Example 187, 2-[4-(5,7-Difluorobenzothiazol-2-yl)methyl-7-trifluoromethoxy-3,4-dihydro-3-oxo-2H-1,4-benzothiazin-2-yl]acetic acid]

IC50 [1]: 7.7 nM
Structure (SMILES): Cc1ccc2c(c1)SC(CC(=O)O)C(=O)N2Cc1nc2ccc(F)c(F)c2s1 (centres unmarked) [Example 199, 2-[4-(6,7-Difluorobenzothiazol-2-yl)methyl-7-methyl-3,4-dihydro-3-oxo-2H-1,4-benzothiazin-2-yl]acetic acid]

IC50 [1]: 8.7 nM
Structure (SMILES): O=C(O)CC1Sc2cc(Cl)ccc2N(Cc2nc3c(F)c(F)cc(F)c3s2)C1=O (centres unmarked) [Example 202, 2-[4-(4,5,7-Trifluorobenzothiazol-2-yl)methyl-7-chloro-3,4-dihydro-3-oxo-2H-1,4-benzothiazin-2-yl]acetic acid]

IC50 [1]: 6.8 nM
Structure (SMILES): COc1ccc2c(c1)N(Cc1nc3c(Cl)c(Cl)ccc3s1)C(=O)C(CC(=O)O)S2 (centres unmarked) [Example 206, 2-[4-(4,5-Dichlorobenzothiazol-2-yl)methyl-6-methoxy-3,4-dihydro-3-oxo-2H-1,4-benzothiazin-2-yl]acetic acid]

Structure (SMILES): O=C(O)CC1Sc2c(F)cccc2N(Cc2nc3c(F)c(F)cc(F)c3s2)C1=O (centres unmarked) [Example 208, 2-[4-(4,5,7-Trifluorobenzothiazol-2-yl)methyl-8-fluoro-3,4-dihydro-3-oxo-2H-1,4-benzothiazin-2-yl]acetic acid]
Accumulation of Tissue Sorbitol (%), Lens [3]: 31.5%
Accumulation of Tissue Sorbitol (%), Red Blood Cell [3]: 22.9%
Accumulation of Tissue Sorbitol (%), Nerve [3]: 0.0%

Structure (SMILES): O=C(O)CC1Sc2ccc(F)cc2N(Cc2nc3c(F)c(F)ccc3s2)C1=O (centres unmarked) [Example 209, 2-[4-(4,5-Difluorobenzothiazol-2-yl)methyl-6-fluoro-3,4-dihydro-3-oxo-2H-1,4-benzothiazin-2-yl]acetic acid]
Accumulation of Tissue Sorbitol (%), Lens [3]: 25.2%
Accumulation of Tissue Sorbitol (%), Red Blood Cell [3]: 24.7%
Accumulation of Tissue Sorbitol (%), Nerve [3]: 3.1%
